Measured values reported in patent US9624214B2, “Amino-substituted imidazo[1,2-a]pyridinecarboxamides and their use” (BAYER PHARMA AKTIENGESELLSCHAFT, priority 2012, dated 2017).

target: T1, recombinant guanylate cyclase reporter cell line (Rattus norvegicus, UniProt P19686+P20595); test: B-2. Action on recombinant guanylate cyclase reporter cell line; type: cell-based; details: MEC = minimal effective concentration; in some cases mean values from individual determinations
T1 construct: expressed in transfected cells
T1 sequence (P20595 1-619): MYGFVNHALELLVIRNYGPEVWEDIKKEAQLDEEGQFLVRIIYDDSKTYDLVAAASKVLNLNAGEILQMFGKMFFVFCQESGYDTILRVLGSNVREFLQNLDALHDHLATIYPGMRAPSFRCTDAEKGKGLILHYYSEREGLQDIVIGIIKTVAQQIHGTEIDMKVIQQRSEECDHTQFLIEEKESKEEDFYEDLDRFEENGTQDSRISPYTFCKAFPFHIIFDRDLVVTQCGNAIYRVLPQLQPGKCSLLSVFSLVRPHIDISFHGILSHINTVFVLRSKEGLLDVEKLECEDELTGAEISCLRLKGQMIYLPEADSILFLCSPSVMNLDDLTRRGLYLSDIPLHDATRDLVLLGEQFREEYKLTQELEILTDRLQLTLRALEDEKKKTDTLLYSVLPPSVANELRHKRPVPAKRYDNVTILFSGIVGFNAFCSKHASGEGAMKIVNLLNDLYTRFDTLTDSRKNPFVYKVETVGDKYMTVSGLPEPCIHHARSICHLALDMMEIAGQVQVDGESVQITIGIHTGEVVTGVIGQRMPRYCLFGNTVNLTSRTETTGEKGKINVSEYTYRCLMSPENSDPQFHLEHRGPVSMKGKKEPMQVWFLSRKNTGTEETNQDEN
T1 sequence (P19686 1-690): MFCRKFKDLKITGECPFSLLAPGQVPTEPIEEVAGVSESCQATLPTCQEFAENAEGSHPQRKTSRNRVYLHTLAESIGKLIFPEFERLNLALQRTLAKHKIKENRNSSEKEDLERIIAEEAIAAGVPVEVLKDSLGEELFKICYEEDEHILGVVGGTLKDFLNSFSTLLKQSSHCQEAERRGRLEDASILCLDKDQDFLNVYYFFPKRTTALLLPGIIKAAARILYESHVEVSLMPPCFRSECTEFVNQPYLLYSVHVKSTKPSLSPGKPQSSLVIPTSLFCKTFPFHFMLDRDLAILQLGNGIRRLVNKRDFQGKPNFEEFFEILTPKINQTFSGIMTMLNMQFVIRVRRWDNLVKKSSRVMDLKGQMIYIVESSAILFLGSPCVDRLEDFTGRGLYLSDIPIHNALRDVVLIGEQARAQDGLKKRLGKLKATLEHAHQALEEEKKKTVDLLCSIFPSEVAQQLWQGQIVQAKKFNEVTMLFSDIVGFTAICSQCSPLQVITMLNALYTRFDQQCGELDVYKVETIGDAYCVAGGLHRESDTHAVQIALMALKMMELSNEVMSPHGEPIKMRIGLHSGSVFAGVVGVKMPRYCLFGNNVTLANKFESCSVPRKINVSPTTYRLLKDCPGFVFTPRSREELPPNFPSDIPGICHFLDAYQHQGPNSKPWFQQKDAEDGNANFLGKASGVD
Method in brief: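 MEC values, meaning the lowest concentration producing a detectable response, were taken from a recombinant cyclase reporter cell assay. Where repeated, individual determinations were averaged.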

Point of comparison: `Cc1cc(OCc2c(F)cccc2F)c2nc(C)c(C(=O)NCC(C)N3CCOCC3)n2c1` (single isomer, unassigned; ent-8) [Example 186, ent-8-[(2,6-Difluorobenzyl)oxy]-2,6-dimethyl-N-[2-(morpholin-4-yl)propyl]imidazo[1,2-a]-pyridine-3-carboxamide], MEC 0.30 µM. Against it:
- Cc1nc2c(OCc3c(F)cccc3F)cccn2c1C(=O)NC(CN1CCOCC1)c1ccccc1 (single isomer, unassigned; ent-8) [Example 182, ent-8-[(2,6-Difluorobenzyl)oxy]-2-methyl-N-[2-(morpholin-4-yl)-1-phenylethyl]imidazo[1,2-a]-pyridine-3-carboxamide] — 10-fold higher, 3.00 µM
- Cc1nc2c(OCc3c(F)cccc3F)cccn2c1C(=O)NC(CN1CCOCC1)c1ccccc1 (single isomer, unassigned; ent-8) [Example 183, ent-8-[(2,6-Difluorobenzyl)oxy]-2-methyl-N-[2-(morpholin-4-yl)-1-phenylethyl]imidazo[1,2-a]-pyridine-3-carboxamide] — 3.3-fold higher, 1.00 µM
- Cc1cc(OCc2c(F)cccc2F)c2nc(C)c(C(=O)NCC(C)N3CCOCC3)n2c1 (single isomer, unassigned; ent-8) [Example 187, ent-8-[(2,6-Difluorobenzyl)oxy]-2,6-dimethyl-N-[2-(morpholin-4-yl)propyl]imidazo[1,2-a]-pyridine-3-carboxamide] — the same, 0.30 µM
- Cc1nc2c(OCc3c(F)cccc3F)cccn2c1C(=O)NCC(C(C)C)N(C)C (single isomer, unassigned; ent-8) [Example 188, ent-8-[(2,6-Difluorobenzyl)oxy]-N-[2-(dimethylamino)-3-methylbutyl]-2-methylimidazo[1,2-a]-pyridine-3-carboxamide] — 3.3-fold higher, 1.00 µM
- Cc1nc2c(OCc3c(F)cccc3F)cccn2c1C(=O)NCC(C(C)C)N(C)C (single isomer, unassigned; ent-8) [Example 189, ent-8-[(2,6-Difluorobenzyl)oxy]-N-[2-(dimethylamino)-3-methylbutyl]-2-methylimidazo[1,2-a]-pyridine-3-carboxamide] — 10-fold higher, 3.00 µM
- Cc1nc2c(OCc3c(F)cccc3F)cccn2c1C(=O)NC(CNCC(F)(F)F)c1ccc(F)c(F)c1 (single isomer, unassigned; ent-8) [Example 222, ent-8-[(2,6-Difluorobenzyl)oxy]-N-{1-(3,4-difluorophenyl)-2-[(2,2,2-trifluoroethyl)amino]ethyl}-2-methylimidazo[1,2-a]pyridine-3-carboxamide] — the same, 0.30 µM
- CCC1CC(NC(=O)c2c(C)nc3c(OCc4c(F)cccc4F)cc(C)cn23)c2nc(C(F)(F)F)ccc2N1 (single isomer, unassigned; ent-8) [Example 325, ent-8-[(2,6-Difluorobenzyl)oxy]-N-[2-ethyl-6-(trifluoromethyl)-1,2,3,4-tetrahydro-1,5-naphthyridin-4-yl]-2,6-dimethylimidazo[1,2-a]pyridine-3-carboxamide] — the same, 0.30 µM
- Cc1cc(OCc2c(F)cccc2F)c2nc(C)c(C(=O)NC3CC(C)Nc4ccc(C(F)(F)F)nc43)n2c1 (single isomer, unassigned; ent-8) [Example 326, ent-8-[(2,6-Difluorobenzyl)oxy]-2,6-dimethyl-N-[2-methyl-6-(trifluoromethyl)-1,2,3,4-tetrahydro-1,5-naphthyridin-4-yl]imidazo[1,2-a]pyridine-3-carboxamide] — the same, 0.30 µM
- Cc1nc2c(OCc3c(F)cccc3F)cccn2c1C(=O)NC1CC2CCCC(C1)N2C1CC1 (stereo not shown) [Example 1, N-(9-Cyclopropyl-9-azabicyclo[3.3.1]non-3-yl)-8-[(2,6-difluorobenzyl)oxy]-2-methylimidazo[1,2-a]pyridine-3-carboxamide] — 3-fold lower, 0.10 µM
- Cc1nc2c(OCc3c(F)cccc3F)cccn2c1C(=O)NC(CN)c1ccc(F)cc1F (stereo not drawn) [Example 21, ent-N-[2-Amino-1-(2,4-difluorophenyl)ethyl]-8-[(2,6-difluorobenzyl)oxy]-2-methylimidazo[1,2-a]-pyridine-3-carboxamide] — the same, 0.30 µM
- Cc1nc2c(OCc3c(F)cccc3F)cc(Cl)cn2c1C(=O)NC(C)CN (stereo not drawn) [Example 22, ent-N-(1-aminopropan-2-yl)-6-chloro-8-[(2,6-difluorobenzyl)oxy]-2-methylimidazo[1,2-a]-pyridine-3-carboxamide] — the same, 0.30 µM
- Cc1nc2c(OCc3c(F)cccc3F)cc(Cl)cn2c1C(=O)NC(C)(C)CN [Example 24, N-(1-amino-2-methylpropan-2-yl)-6-chloro-8-[(2,6-difluorobenzyl)oxy]-2-methylimidazo[1,2-a]pyridine-3-carboxamide] — 2.2-fold higher, 0.65 µM
- Cc1cc(OCc2c(F)cccc2F)c2nc(C)c(C(=O)NC(C)(C)CN)n2c1 [Example 26, N-(1-amino-2-methylpropan-2-yl)-8-[(2,6-difluorobenzyl)oxy]-2,6-dimethylimidazo [1,2-a]-pyridine-3-carboxamide] — the same, 0.30 µM
- Cc1nc2c(OCc3c(F)cccc3F)cccn2c1C(=O)NC1CC2CCCC(C1)N2 (stereo not shown) [Example 27, N-(9-azabicyclo[3.3.1]non-3-yl)-8-[(2,6-difluorobenzyl)oxy]-2-methylimidazo[1,2-a]-pyridine-3-carboxamide] — 3.3-fold higher, 1.00 µM
- Cc1nc2c(OCc3c(F)cccc3F)cc(Cl)cn2c1C(=O)NCCC1(N)CCCCC1 [Example 33, N-[2-(1-Aminocyclohexyl)ethyl]-6-chloro-8-[(2,6-difluorobenzyl)oxy]-2-methylimidazo[1,2-a]-pyridine-3-carboxamide] — the same, 0.30 µM
- CC[C@@H](N)CNC(=O)c1c(C)nc2c(OCc3c(F)cccc3F)cc(Cl)cn12 [Example 35, ent-N-[(2R)-2-aminobutyl]-6-chloro-8-[(2,6-difluorobenzyl)oxy]-2-methylimidazo[1,2-a]-pyridine-3-carboxamide] — 3.3-fold higher, 1.00 µM
- Cc1nc2c(OCc3c(F)cccc3F)cc(Cl)cn2c1C(=O)NCCN [Example 36, N-(2-aminoethyl)-6-chloro-8-[(2,6-difluorobenzyl)oxy]-2-methylimidazo[1,2-a]-pyridine-3-carboxamide] — 3.3-fold higher, 1.00 µM
- Cc1nc2c(OCc3c(F)cccc3F)cc(Cl)cn2c1C(=O)NCCCN [Example 37, N-(3-aminopropyl)-6-chloro-8-[(2,6-difluoro-benzyl)oxy]-2-methylimidazo[1,2-a]pyridine-3-carboxamide] — 3.3-fold higher, 1.00 µM
- Cc1nc2c(OCc3c(F)cccc3F)cccn2c1C(=O)NCC1(N)CC1 [Example 38, N-[(1-aminocyclopropyl)methyl]-8-[(2,6-difluorobenzyl)oxy]-2-methylimidazo[1,2-a]-pyridine-3-carboxamide] — within 1.5-fold, 0.40 µM
- Cc1nc2c(OCc3c(F)cccc3F)cc(Cl)cn2c1C(=O)NCC1(N)CC1 [Example 39, N-[(1-aminocyclopropyl)methyl]-6-chloro-8-[(2,6-difluorobenzyl)oxy]-2-methylimidazo[1,2-a]pyridine-3-carboxamide] — 3-fold lower, 0.10 µM
- Cc1cc(OCc2c(F)cccc2F)c2nc(C)c(C(=O)NCC3(N)CC3)n2c1 [Example 40, N-[(1-aminocyclopropyl)methyl]-8-[(2,6-difluorobenzyl)oxy]-2,6-dimethylimidazo[1,2-a]-pyridine-3-carboxamide] — 3-fold lower, 0.10 µM
- Cc1nc2c(OCc3c(F)cccc3F)cccn2c1C(=O)NCC1(N)CCCC1 [Example 41, N-[(1-aminocyclopentyl)methyl]-8-[(2,6-difluorobenzyl)oxy]-2-methylimidazo[1,2-a]-pyridine-3-carboxamide] — the same, 0.30 µM
- Cc1nc2c(OCc3c(F)cccc3F)cc(Cl)cn2c1C(=O)NCC1(N)CCCC1 [Example 42, N-[(1-aminocyclopentyl)methyl]-6-chloro-8-[(2,6-difluorobenzyl)oxy]-2-methylimidazo[1,2-a]pyridine-3-carboxamide] — 3.3-fold higher, 1.00 µM
- Cc1nc2c(OCC3CCCCC3)cccn2c1C(=O)NC(CN)c1ccc(F)cc1F (stereo not drawn) [Example 45, ent-N-[2-Amino-1-(2,4-difluorophenyl)ethyl]-8-(cyclohexylmethoxy)-2-methylimidazo[1,2-a]-pyridine-3-carboxamide] — 3.3-fold higher, 1.00 µM
